Measured values as given in ChEMBL document CHEMBL4651402, “Screening of ~5500 FDA-approved drugs and clinical candidates for anti-SARS-CoV-2 activity” (2021).

Tested on: SARS-CoV-2
Assay: microbe, parasite or virus in culture
Settings: Severe acute respiratory syndrome coronavirus 2, Vero C1008, 48 h

SMILES | IC50 | IC50 (read-out: pIC50 (converted))
CN1C2CCC1CC(O)C2 (stereo unspecified) | > 20 µM | > 20 µM
C[C@H](Cc1ccc2c(c1)OC(C(=O)O)(C(=O)O)O2)NC[C@H](O)c1cccc(Cl)c1 | > 20 µM | > 20 µM
O=C(O)C1CC(O)CN1 (stereo unspecified) | > 20 µM | > 20 µM
CC[C@H]1OC(=O)[C@H](C)C(=O)[C@H](C)[C@@H](O[C@@H]2O[C@H](C)C[C@H](N(C)C)[C@H]2O)[C@](C)(OC)C[C@@H](C)C(=O)[C@H](C)[C@@H]2N(CCCCn3cnc(-c4cccnc4)c3)C(=O)O[C@@]21C | > 20 µM | > 20 µM
CC(=O)N[C@@H]1[C@@H](O[C@H](C)C(=O)O)[C@H](O)[C@@H](CO)O[C@@H]1O | > 20 µM | > 20 µM
Fc1ccc(C(c2ccc(F)cc2)N2CCN(C/C=C\c3ccccc3)CC2)cc1 | > 20 µM | > 20 µM
CC(=O)OCC(=O)[C@H]1CC[C@H]2[C@@H]3CC=C4C[C@@H](O)CC[C@]4(C)[C@H]3CC[C@]12C | > 20 µM | > 20 µM
COc1cccc(C=O)c1O | > 20 µM | > 20 µM
CCCCCCCCCCCCCCCC(=O)OCC(O)C1OC(=O)C(O)=C1O (stereo unspecified) | > 20 µM | > 20 µM
CC(C)(C)CC(C)(C)c1ccc(OCOCCOCCO)c(Cc2cc(C(C)(C)CC(C)(C)C)cc(Cc3cc(C(C)(C)CC(C)(C)C)ccc3OCOCCOCCO)c2OCOCCOCCO)c1 | > 20 µM | > 20 µM
COc1ccc2c(c1)C(C(=O)N(Cc1ccc(N(C)C)cc1)c1ccc(C(C)C)cc1)CCC2 (stereo unspecified) | > 20 µM | > 20 µM
Clc1ccc(CO[C@H](Cn2ccnc2)c2ccc(Cl)cc2Cl)c(Cl)c1 | > 20 µM | > 20 µM
CCC(CC)CC(=O)c1c(C(=O)OC)c(-c2ccc(OC)c(OC)c2)c2c(OC)c(OC)c(OC)cc2c1O | > 20 µM | > 20 µM
CN1C(CC(O)c2ccccc2)CCCC1CC(O)c1ccccc1 (stereo unspecified) | > 20 µM | > 20 µM
CCCN(CCC)CCc1ccc(OC)c(OCCc2ccccc2)c1 | > 20 µM | > 20 µM
CCCc1nn(C)c2c(=O)[nH]c(-c3cc(S(=O)(=O)N4CCN(C)CC4)ccc3OCC)nc12 | > 20 µM | > 20 µM
CCOc1ncc(S(=O)(=O)N2CCN(CC)CC2)cc1-c1nc2c(CC)n(CCOC)nc2c(=O)[nH]1 | > 20 µM | > 20 µM
O=C1Nc2ccc(Cl)cc2[C@](C#CC2CC2)(C(F)(F)F)O1 | > 20 µM | > 20 µM
CCOC(=O)C1=CCCC[C@@H]1S(=O)(=O)Nc1ccc(F)cc1Cl | > 20 µM | > 20 µM
Cc1cccc(C)c1NC(=O)C1(N(C)C)CCN([C@H]2CCCC[C@@H]2O)CC1 | > 20 µM | > 20 µM
CCOC(=O)Nc1ccc(SC[C@H]2CO[C@](Cn3ccnc3)(c3ccc(Cl)cc3Cl)O2)cc1 | > 20 µM | > 20 µM
O=C(Nc1cccc2c(=O)cc(-c3nnn[nH]3)oc12)c1ccc(OCCCCc2ccccc2)cc1 | > 100 µM | > 100 µM
COC(=O)N[C@H](C(=O)N1CC2(CC2)C[C@H]1c1nc(-c2ccc3c(c2)C(F)(F)c2cc(-c4ccc5[nH]c([C@@H]6[C@H]7CC[C@H](C7)N6C(=O)[C@@H](NC(=O)OC)C(C)C)nc5c4)ccc2-3)c[nH]1)C(C)C | > 20 µM | > 20 µM

SMILES | IC50 | IC50 (read-out: pIC50 (converted))
NCC1CCC(C(=O)Oc2ccc(CCC(=O)O)cc2)CC1 (stereo unspecified) | > 20 µM | > 20 µM
CNC(CC(=O)O)C(=O)O (stereo unspecified) | > 20 µM | > 20 µM
Nc1nc(O)c2ncn([C@@H]3O[C@H](CO)[C@@H](O)[C@H]3F)c2n1 | > 20 µM | > 20 µM
O=C(NCCN1CCN(c2cccc3c2OC[C@@H](CO)O3)CC1)c1ccc(F)cc1 | > 20 µM | > 20 µM
COc1cc2c(cc1OC)C(C)NCC2 (stereo unspecified) | > 20 µM | > 20 µM
O=C(NC[C@H](O)CN1CCc2ccccc2C1)c1cc(NC2COC2)ncn1 | > 20 µM | > 20 µM
CCOC(=O)C1=C(CN2CCOCC2)NC(c2nccs2)=N[C@H]1c1ccc(F)cc1Br | > 20 µM | > 20 µM
CC(=O)N[C@@H](Cc1ccccc1)C(=O)N[C@H]1CCCNC(=O)[C@H](CCCN=C(N)N)NC(=O)[C@H](Cc2c[nH]c3ccccc23)NC(=O)[C@@H](CC2CCCCC2)NC(=O)[C@@H]2CCCN2C1=O | > 20 µM | > 20 µM
O=C(O)CNC(=O)c1nc(Cl)c2ccccc2c1O | > 20 µM | > 20 µM
O=P(O)(O)OC[C@H]1OC(O)[C@H](O)[C@@H](O)[C@@H]1O (stereo partly specified) | > 20 µM | > 20 µM
CC(=O)N[C@@H](C=O)[C@@H](O)[C@H](O)[C@H](O)CO | > 20 µM | > 20 µM
CC(C)OC(=O)[C@H](C)N[P@@](=O)(OC[C@@]1(F)O[C@@H](n2ccc(=O)[nH]c2=O)[C@](C)(O)[C@@H]1O)Oc1ccccc1 | > 20 µM | > 20 µM
NS(=O)(=O)NCc1csc2ccccc12 | > 20 µM | > 20 µM
COc1ccc2c(c1)[C@H]1C[C@@]1(C(=O)N1C3CCC1CN(C)C3)Cn1c-2c(C2CCCCC2)c2ccc(C(=O)NS(=O)(=O)N(C)C)cc21 | > 20 µM | > 20 µM
C[C@H]1C(O)O[C@@H]2O[C@@]3(C)CC[C@H]4[C@H](C)CCC1[C@@]24OO3 (stereo partly specified) | > 20 µM | > 20 µM
CCC(=O)OC(CC(=O)O)C[N+](C)(C)C (stereo unspecified) | > 20 µM | > 20 µM
NC(=O)CNC1Cc2ccccc2C1 | > 20 µM | > 20 µM
O=C(O)Cc1ccc(OCCNCC(O)c2ccccc2)cc1 (stereo unspecified) | > 20 µM | > 20 µM
CN1CCO[C@@H](c2ccccc2)c2ccccc2C1 | > 20 µM | > 20 µM
COc1ccc2c(c1)CC[C@@H](CN(C)CC(=O)O)[C@H]2c1ccccc1 | > 20 µM | > 20 µM
O=C1N[C@@H](C(=O)O)CS1 | > 20 µM | > 20 µM
C/C(=C(\OCCOc1ccc(Cl)cc1)c1ccc(Cl)cc1Cl)n1ccnc1 | > 20 µM | > 20 µM
[2H]C1([2H])[C@H]2C[C@@H]([C@@H]1Oc1ccc(C(F)(F)F)cn1)N(C(=O)c1cccc(F)c1-c1ncccn1)C2([2H])[2H] | > 20 µM | > 20 µM

SMILES | IC50 | IC50 (read-out: pIC50 (converted))
C=C1CC[C@H]2[C@@H](/C=C(/C)C(=O)[C@@]3(OC(C)=O)C[C@H](C)[C@H](OC(=O)c4ccccc4)[C@@H]3[C@H]1OC(C)=O)C2(C)C | > 20 µM | > 20 µM
CC(CCC(=O)O)C1CCC2C3CC[C@@H]4C[C@H](O)CC[C@]4(C)C3C[C@H](O)[C@]12C (stereo partly specified) | > 20 µM | > 20 µM
[2H]C1([2H])COc2ccc(Cc3cc([C@@H]4O[C@H](CO)[C@@H](O)[C@H](O)[C@H]4O)ccc3CC)cc2O1 | > 20 µM | > 20 µM
CC(=O)OC[C@@]1(O)C[C@@]23CC[C@@H]4c5ccoc5CC[C@@]4(C)[C@@H]2CC[C@H]1C3 | > 20 µM | > 20 µM
CN[C@H]1CCN(c2cc(NCC3CC3)nc(N)n2)C1 | > 20 µM | > 20 µM
CC(C(=O)O)c1ccc2oc(-c3ccc(F)cc3)nc2c1 (stereo unspecified) | > 20 µM | > 20 µM
COc1cccc(C2(CCCN(C)C)C(=O)NC(=O)CC2(C)C)c1 (stereo unspecified) | > 20 µM | > 20 µM
CN[C@@H]1[C@H](O[C@H]2[C@H](O[C@@H]3[C@@H](O)[C@H](O)[C@@H](NC(=N)N)[C@H](O)[C@H]3NC(=N)N)O[C@@H](C)[C@]2(O)CO)O[C@@H](CO)[C@H](O)[C@H]1O | > 20 µM | > 20 µM
CC1(O)/C=C\C=C(\CO)C2CC(C)(C)C2(O)CC1 (stereo unspecified) | > 20 µM | > 20 µM
CC(C)CC(NC(=O)C(Cc1ccccc1)NC(=O)CNC(=O)[C@H](C)NC(=O)C(N)Cc1ccc(O)cc1)C(=O)N[C@H](CCCNC(=N)N)C(=O)O (stereo partly specified) | > 20 µM | > 20 µM
C=C(C)[C@@H]1[C@@H]2OC(=O)[C@H]1[C@]1(O)C[C@H]3O[C@]34C(=O)O[C@H]2[C@]14C.CC(C)(O)[C@@H]1[C@@H]2OC(=O)[C@H]1[C@]1(O)C[C@H]3O[C@]34C(=O)O[C@H]2[C@]14C | > 20 µM | > 20 µM
CC[C@H]1C2C[C@H]3[C@@H]4N(C)c5ccccc5[C@]45C[C@H](C2[C@H]5O)N3[C@@H]1O (stereo partly specified) | > 20 µM | > 20 µM
Cc1noc(-c2ccc(-c3ccc(C4(C(=O)O)CC4)cc3)cc2)c1NC(=O)O[C@@H](C)c1ccccc1 | > 20 µM | > 20 µM
C[C@@H]1[C@H](O)[C@@H](C)\C=C/C=C\C=C/C=C\C=C/C=C\C=C/[C@H](O[C@@H]2O[C@H](C)[C@@H](O)[C@H](N)[C@@H]2O)C[C@@H]2O[C@](O)(C[C@@H](O)C[C@@H](O)[C@H](O)CC[C@@H](O)C[C@@H](O)CC(=O)O[C@H]1C)C[C@H](O)[C@H]2C(=O)O | > 20 µM | > 20 µM
N=C(N)NCCCNC(=O)[C@@H]1CCCCN1C(=O)[C@H](CC1CCCCC1)NCC(=O)O | > 20 µM | > 20 µM
CN(C)c1ccc(-c2ccc3cc(OC[C@@H](O)CF)ccc3n2)cc1 | > 20 µM | > 20 µM
CC[C@H](C)[C@H]1O[C@]2(C=C[C@@H]1C)C[C@@H]1C[C@@H](C/C=C(/C)[C@@H](O[C@H]3C[C@H](OC)[C@@H](O[C@H]4C[C@H](OC)[C@@H](O)[C@H](C)O4)[C@H](C)O3)[C@@H](C)/C=C\C=C3\CO[C@@H]4[C@H](O)C(C)=C[C@@H](C(=O)O1)[C@]34O)O2 | > 20 µM | > 20 µM
CCN(Cc1ccccc1)C(=O)Cn1c(=O)n(C)c2cnc(-c3ccccc3)nc21 | > 20 µM | > 20 µM
CC1=NC(=O)[C@](CCN(C(C)C)C(C)C)(c2ccccc2)[C@H]2CCCCN12 | > 20 µM | > 20 µM
O=C(OC1Cc2c(O)cc(O)cc2O[C@@H]1c1ccc(O)c(O)c1)c1cc(O)c(O)c(O)c1 (stereo partly specified) | > 20 µM | > 20 µM
NS(=O)(=O)c1ccc(N2CCN(CC[C@H]3OCCc4ccccc43)CC2)cc1 | > 20 µM | > 20 µM
C=CC1=C(C(=O)O)N2C(=O)[C@@H](NC(=O)/C(=N\O)c3csc(N)n3)[C@H]2SC1 | > 20 µM | > 20 µM
